Assays:
guinea-pig = assay: bronchoconstriction test, Konzett-Rossler guinea-pig model, U46619 induced; type: in vivo; conditions: for reduction (inhibition) of bronchoconstriction: 0.5 mg./kg. p.o., 2.5 hours after administration, guinea-pig, U46619 i.v.
Protocol: (c) a bronchoconstriction test involving measuring the inhibition by a test compound of the bronchoconstriction induced in the Konzett-Rossler guinea-pig model (as modified by Collier and James, Brit. J. Pharmacol., 1967, 30, 283-307) by intravenous administration of the TXA2 mimetic agent, U46619 at 1-1.9 μg/kg.

dog platelets = assay: ex vivo U46619 induced blood platelet aggregation after oral dosing, dogs; type: in vivo; conditions: for inhibition of U46619 induced aggregation: 12 hours after oral administration to dogs at 2.5 mg./kg.
From the text: (§1) (e) For example in the rabbit, arterial blood samples are taken by standard techniques into 3.8% w/v solution of trisodium citrate as anti-coagulant (1 part citrate: 9 parts blood) and then centrifuged first at 150 g, and then at 1000 g, to prepare platelet rich and platelet poor plasma fractions. These fractions are then used to calibrate an instrument for measuring light transmittance and thus the amount of platelet aggregation. The extent of platelet aggregation following addition of the TXA2 mimetic agent U46619 (final concentrations 0.2-2.2 μg./ml.) to the platelet rich plasma fraction is then determined, and the value of maximum aggregation in response to each concentration of U46619 is recorded. The test animals are then dosed orally with the test compound, and arterial blood samples are withdrawn at intervals after dosing. The platelet rich plasma fraction is prepared and U46619 added as above, and the extent of aggregation assessed by measuring the light transmittance of the sample. This value is compared with that obtained from the same animal before dosing, so that a measure of the extent of inhibition of U46619 induced blood platelet aggregation is obtained.
A similar procedure is used in rats and guinea pigs except that blood samples are not taken prior to dosing but a control value is obtained from a group of undosed animals. When the aggregation of dog platelets is being studied, it is necessary to use a predetermined, threshold concentration of the platelet aggregant adenosine diphosphate (about 0.4-1.2×10^-6 M) together with the TXA2 mimetic agent, U46619.

[1] = test system: citrated, platelet rich, human plasma; assay: blood platelet aggregation test, U46619 induced aggregation of platelet rich plasma; type: cell-based; conditions: inhibition of aggregation of human platelet rich plasma induced by U46619 (50-250 ng/ml)
Protocol: (b) a blood platelet aggregation test based on that described by Born (Nature, 1962, 194, 927-929) and involving measuring the inhibition by a test compound of aggregation of citrated, platelet rich, human plasma induced by a sub-maximal concentration (in the range 50-250 ng/ml.) of U46619; and […]

[2] = test system: Male rats (Alderley Park strain); assay: U46619 induced hypertensive effect in anaesthetised rats; type: in vivo, rat
Protocol: (d) Male rats (Alderley Park strain) are anaesthetised with sodium pentobarbital and blood pressure is monitored at the carotid artery. The TXA2 mimetic agent known as U46619 is administered intravenously via the jugular vein and an ED50 (dose necessary to produce 50% of the maximum hypertensive effect) is established (n=3). The ED50 for U46619 is approximately 5 μg/kg. The test compound is then administered either intravenously via the jugular vein or orally via a cannula directly into the stomach and the animal challenged with an ED50 dose of U46619, five minutes after dosing with test compound and then successively every ten minutes until the hypertensive effect of U46619 is no longer blocked.

blood platelets = assay: ex vivo U46619 induced blood platelet aggregation after oral dosing, rats; type: in vivo, rat; conditions: 6.5 hours after oral administration to rats at 10 mg./kg.
From the text: as §1
A similar procedure is used in rats and guinea pigs except that blood samples are not taken prior to dosing but a control value is obtained from a group of undosed animals. […]

Q: With `CC1(C)OC[C@@H](C/C=C\CCCC(=O)O)[C@@H](c2ccccc2O)O1` (relative stereo) [P, 5(Z)-7-(4-o-hydroxyphenyl-2,2-dimethyl-1,3-dioxan-cis-5-yl)heptenoic acid] as the molecule, how does the “reduction (inhibition) of bronchoconstriction” value (“reduction (inhibition)” for short) (guinea-pig) read?
A: 57%

Q: And the “inhibition of U46619 induced aggregation” value (dog platelets)?
A: 15%

Q: And the “maximal inhibition of platelet aggregation” value (dog platelets; some 3 hours after an oral dose of 2.5 mg./kg. in dogs)?
A: 93%

Q: For `O=C(O)CCC/C=C\C[C@@H]1CO[C@H](C(F)(F)F)O[C@@H]1c1ccccc1` (relative stereo) [Q, 5(Z)-7-([2,4,5-cis]-4-phenyl-2-trifluoromethyl-1,3-dioxan-5-yl)heptenoic acid], which “reduction (inhibition)” value (guinea-pig) is on record?
A: no significant inhibition

Q: What about the “maximal inhibition of platelet aggregation” value (dog platelets; some 4 hours after an oral dose of 75 mg./kg. in dogs) of the same molecule?
A: 23%

Q: Which IC50 [1] does the source give for `O=C(O)CCC/C=C\C[C@@H]1CO[C@H](C(F)(F)F)O[C@@H]1c1ccccc1O` (relative stereo) [formula I, 5(Z)-7-([2,4,5-cis]-4-o-hydroxyphenyl-2-trifluoromethyl-1,3-dioxan-5-yl)heptenoic acid] here?
A: 7.78 ± 1.6 ng/mL

Q: And the inhibition of bronchoconstriction (guinea-pig; 0.5 mg./kg. oral, 3 hours after dosing (as restated))?
A: ~95%

Q: And the “reduction (inhibition)” value (guinea-pig)?
A: ~95%

Q: And the “protection from blood pressure rise induced by U46619” value ([2]; 3 hours after oral administration at 5 mg./kg., rats)?
A: essentially complete protection

Q: And the “inhibition of U46619 induced aggregation” value (dog platelets)?
A: 95%

Q: And the “inhibition of U46619 induced platelet aggregation (in words)” value (dog platelets; for up to 12 hours following an oral dose of 2.5 mg./kg. in dogs)?
A: essentially complete inhibition

Q: And the “inhibition of U46619 induced aggregation” value (blood platelets)?
A: 90%

Q: With `CCCCC[C@H](O)/C=C/[C@@H]1[C@@H](C/C=C\CCCC(=O)O)[C@H]2CO[C@@H]1C2` [Example U46619] as the molecule, how does the ED50 ([2]; Rattus norvegicus, iv, U46619 intravenously via the jugular vein, anaesthetised rats, n=3, read-out: ED50 (dose necessary to produce 50% of the maximum hypertensive effect)) read?
A: ~5 µg/kg
